Experimental data taken from patent publication US20070021419A1, “2-Aminophenyl-4-phenylpyrimidines as kinase inhibitors” (Cyclacel Limited, priority 2003, published 2007).

Assays:
[1] = target: CDK2/cyclin E (Homo sapiens, UniProt P24941); experiment: Kinase assay, radioactive phosphate incorporation, CDK2/cyclin E; format: biochemical; details: 100 μM ATP, 30° C.; read-out: Kinase inhibition IC50 CDK2/cyclin E
Protocol: (§1) The compounds from the examples above were investigated for their ability to inhibit the enzymatic activity of various protein kinases. This was achieved by measurement of incorporation of radioactive phosphate from ATP into appropriate polypeptide substrates. Recombinant protein kinases and kinase complexes were produced or obtained commercially. Assays were performed using 96-well plates and appropriate assay buffers (typically 25 mM β-glycerophosphate, 20 mM MOPS, 5 MM EGTA, 1 mM DTT, 1 mM Na3VO3, pH 7.4), into which were added 2-4 μg of active enzyme with appropriate substrates. The reactions were initiated by addition of Mg/ATP mix (15 mM MgCl2+100 μM ATP with 30-50 kBq per well of [γ-^32P]-ATP) and mixtures incubated as required at 30° C. Reactions were stopped on ice, followed by filtration through p81 filterplates or GF/C filterplates (Whatman Polyfiltronics, Kent, UK). After washing 3 times with 75 mM aq orthophosphoric acid, plates were dried, scintillant added and incorporated radioactivity measured in a scintillation counter (TopCount, Packard Instruments, Pangbourne, Berks, UK). Compounds for kinase assay were made up as 10 mM stocks in DMSO and diluted into 10% DMSO in assay buffer.

[2] = target: CDK7/cyclin H (Homo sapiens, UniProt P50613); experiment: Kinase assay, radioactive phosphate incorporation, CDK7/cyclin H; format: biochemical; details: 100 μM ATP, 30° C.; read-out: Kinase inhibition IC50 CDK7/cyclin H
CDK7/cyclin H, sequence (P50613 whole entry, species assumed): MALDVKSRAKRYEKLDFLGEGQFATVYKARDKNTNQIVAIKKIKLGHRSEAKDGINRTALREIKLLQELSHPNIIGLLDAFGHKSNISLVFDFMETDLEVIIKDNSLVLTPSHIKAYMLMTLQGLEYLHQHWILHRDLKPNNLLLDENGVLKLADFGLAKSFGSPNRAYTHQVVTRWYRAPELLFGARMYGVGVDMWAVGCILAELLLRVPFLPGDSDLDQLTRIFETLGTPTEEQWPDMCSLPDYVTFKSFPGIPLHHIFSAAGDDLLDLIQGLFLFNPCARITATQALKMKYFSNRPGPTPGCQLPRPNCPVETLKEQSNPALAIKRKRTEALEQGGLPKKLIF
CDK7/cyclin H, sequence (P51946 whole entry partner, species assumed): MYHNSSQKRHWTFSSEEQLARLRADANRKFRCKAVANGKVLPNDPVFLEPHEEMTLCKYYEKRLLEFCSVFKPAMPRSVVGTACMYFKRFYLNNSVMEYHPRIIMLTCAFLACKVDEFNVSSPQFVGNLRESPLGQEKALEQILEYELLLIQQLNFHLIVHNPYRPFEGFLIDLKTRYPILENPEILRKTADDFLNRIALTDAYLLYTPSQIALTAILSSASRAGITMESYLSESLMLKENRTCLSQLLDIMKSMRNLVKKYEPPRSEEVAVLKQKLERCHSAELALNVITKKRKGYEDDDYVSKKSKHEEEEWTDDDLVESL
Protocol: as §1

[3] = target: CDK9/cyclin T1 (Homo sapiens, UniProt P50750); experiment: Kinase assay, radioactive phosphate incorporation, CDK9/cyclin T1; format: biochemical; details: 100 μM ATP, 30° C.; read-out: Kinase inhibition IC50 CDK9/cyclin T1
CDK9/cyclin T1, sequence (P50750 whole entry, species assumed): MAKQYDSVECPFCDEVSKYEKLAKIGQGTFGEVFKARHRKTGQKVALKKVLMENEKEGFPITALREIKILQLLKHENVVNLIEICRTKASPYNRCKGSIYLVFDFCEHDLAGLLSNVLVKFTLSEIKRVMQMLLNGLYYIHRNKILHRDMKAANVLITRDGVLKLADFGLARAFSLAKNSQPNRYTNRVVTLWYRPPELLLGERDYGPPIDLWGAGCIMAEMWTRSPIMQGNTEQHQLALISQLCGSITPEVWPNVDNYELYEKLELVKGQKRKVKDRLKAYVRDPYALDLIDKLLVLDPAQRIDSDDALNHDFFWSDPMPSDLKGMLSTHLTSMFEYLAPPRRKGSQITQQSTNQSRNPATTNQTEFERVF
CDK9/cyclin T1, sequence (O60563 whole entry partner, species assumed): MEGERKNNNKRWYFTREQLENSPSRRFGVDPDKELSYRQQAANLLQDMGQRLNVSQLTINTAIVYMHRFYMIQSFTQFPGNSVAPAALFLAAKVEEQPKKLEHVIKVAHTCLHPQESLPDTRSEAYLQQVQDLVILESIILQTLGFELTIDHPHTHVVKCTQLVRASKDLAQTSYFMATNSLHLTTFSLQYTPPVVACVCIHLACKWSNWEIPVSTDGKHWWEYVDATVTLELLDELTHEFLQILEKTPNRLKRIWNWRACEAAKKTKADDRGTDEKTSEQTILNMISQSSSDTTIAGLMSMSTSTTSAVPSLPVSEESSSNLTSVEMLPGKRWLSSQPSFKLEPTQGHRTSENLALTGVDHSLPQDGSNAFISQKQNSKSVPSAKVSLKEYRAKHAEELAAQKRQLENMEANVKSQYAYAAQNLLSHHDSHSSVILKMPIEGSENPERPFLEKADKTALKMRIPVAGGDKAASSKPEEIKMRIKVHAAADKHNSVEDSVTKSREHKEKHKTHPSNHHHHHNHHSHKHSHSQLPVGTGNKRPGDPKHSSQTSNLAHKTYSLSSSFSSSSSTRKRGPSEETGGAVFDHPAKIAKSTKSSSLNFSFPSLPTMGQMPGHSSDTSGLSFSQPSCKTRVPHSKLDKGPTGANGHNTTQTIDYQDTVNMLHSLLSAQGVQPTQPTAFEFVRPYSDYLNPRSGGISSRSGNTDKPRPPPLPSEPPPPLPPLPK
Protocol: as §1

[4] = target: GSK3β (Homo sapiens, UniProt P49841); experiment: Kinase assay, radioactive phosphate incorporation, GSK3β; format: biochemical; details: 100 μM ATP, 30° C.; read-out: Kinase inhibition IC50 GSK3β
GSK3β, sequence (P49841 whole entry, species assumed): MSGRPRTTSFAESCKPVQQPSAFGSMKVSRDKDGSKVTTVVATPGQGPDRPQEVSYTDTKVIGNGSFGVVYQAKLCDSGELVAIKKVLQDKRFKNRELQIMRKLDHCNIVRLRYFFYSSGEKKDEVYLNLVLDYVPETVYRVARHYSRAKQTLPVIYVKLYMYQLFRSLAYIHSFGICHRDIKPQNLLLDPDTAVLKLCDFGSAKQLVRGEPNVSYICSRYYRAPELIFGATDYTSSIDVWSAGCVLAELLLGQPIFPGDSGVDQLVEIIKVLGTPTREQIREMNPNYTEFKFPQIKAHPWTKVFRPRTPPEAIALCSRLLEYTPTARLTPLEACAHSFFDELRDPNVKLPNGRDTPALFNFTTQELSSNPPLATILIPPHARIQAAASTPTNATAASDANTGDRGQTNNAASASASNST
Protocol: as §1

[5] = test system: A549; experiment: 72-h MTT cytotoxicity assay, A549; format: cell-based; details: Homo sapiens, read-out: 72-h MTT IC50 A549, A549 cell line
Protocol: (§2) The compounds from the examples above were subjected to a standard cellular proliferation assay using human tumour cell lines obtained from the ATCC (American Type Culture Collection, 10801 University Boulevard, Manessas, Va. 20110-2209, USA). Standard 72-h MTT (thiazolyl blue; 3-[4,5-dimethylthiazol-2-yl]-2,5-diphenyltetrazolium bromide) assays were performed. In short: cells were seeded into 96-well plates according to doubling time and incubated overnight at 37° C. Test compounds were made up in DMSO and a 1/3 dilution series prepared in 100 μL cell media, added to cells (in triplicates) and incubated for 72 ho at 37° C. MTT was made up as a stock of 5 mg/mL in cell media and filter-sterilised. Media was removed from cells followed by a wash with 200 μL PBS. MTT solution was then added at 20 μL per well and incubated in the dark at 37° C. for 4 h. MTT solution was removed and cells again washed with 200 μL PBS. MTT dye was solubilised with 200 μL per well of DMSO with agitation.

[6] = test system: HT29; experiment: 72-h MTT cytotoxicity assay, HT29; format: cell-based; details: Homo sapiens, HT-29, read-out: 72-h MTT IC50 HT29, HT29 cell line
Protocol: as §2

[7] = test system: Saos-2; experiment: 72-h MTT cytotoxicity assay, Saos-2; format: cell-based; details: Homo sapiens, read-out: 72-h MTT IC50 Saos-2, Saos-2 cell line
Protocol: as §2

[8] = test system: transformed human cell lines (A549, HT29, Saos-2); experiment: 72-h MTT cytotoxicity assay, average of cell lines; format: cell-based; details: read-out: 72-h MTT IC50 Average, average of A549, HT29, Saos-2
Protocol: as §2

[9] = target: CDK2/cyclin A (Homo sapiens, UniProt P24941); experiment: Kinase assay, radioactive phosphate incorporation, CDK2/cyclin A; format: biochemical; details: 100 μM ATP, 30° C.; read-out: Kinase inhibition IC50 CDK2/cyclin A
Protocol: as §1

[10] = target: CDK4/cyclin D1 (Homo sapiens, UniProt P11802); experiment: Kinase assay, radioactive phosphate incorporation, CDK4/cyclin D1; format: biochemical; details: 100 μM ATP, 30° C.; read-out: Kinase inhibition IC50 CDK4/cyclin D1
CDK4/cyclin D1, sequence (P11802 whole entry, species assumed): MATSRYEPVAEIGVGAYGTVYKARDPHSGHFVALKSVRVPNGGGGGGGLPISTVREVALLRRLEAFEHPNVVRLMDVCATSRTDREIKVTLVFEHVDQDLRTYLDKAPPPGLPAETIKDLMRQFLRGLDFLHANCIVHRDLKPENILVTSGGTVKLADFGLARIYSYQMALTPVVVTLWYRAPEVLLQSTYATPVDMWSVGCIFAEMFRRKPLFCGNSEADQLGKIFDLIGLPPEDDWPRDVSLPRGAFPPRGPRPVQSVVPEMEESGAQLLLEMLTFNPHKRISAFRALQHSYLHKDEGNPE
CDK4/cyclin D1, sequence (P24385 whole entry partner, species assumed): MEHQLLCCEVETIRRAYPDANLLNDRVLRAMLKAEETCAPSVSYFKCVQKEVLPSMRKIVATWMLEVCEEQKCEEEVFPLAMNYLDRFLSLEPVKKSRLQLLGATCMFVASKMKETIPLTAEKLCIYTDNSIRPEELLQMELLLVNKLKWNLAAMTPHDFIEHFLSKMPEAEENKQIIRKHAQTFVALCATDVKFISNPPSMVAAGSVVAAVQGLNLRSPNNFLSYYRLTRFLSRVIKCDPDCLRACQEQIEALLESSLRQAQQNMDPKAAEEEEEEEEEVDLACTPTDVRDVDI
Protocol: as §1

IC50 [1] | IC50 [2] | IC50 [3] | IC50 [4] | IC50 [9] | IC50 [10] | Compound | IC50 [5] | IC50 [6] | IC50 [7] | IC50 [8]
7000 nM | 28000 nM | 3000 nM | 370 nM |  |  | COc1ccc(Nc2nccc(-c3cccc(C#N)c3)n2)cn1 [Compound 51, 3-[2-(6-Methoxy-pyridin-3-ylamino)-pyrimidin-4-yl]-benzonitrile] | 35.7 µM | 10.3 µM | 67 µM | 37.7 ± 28.4 µM
140 nM | 1100 nM | 92 nM | 120 nM | 2 µM | 9.1 µM | Oc1ccc(Nc2nccc(-c3cccc(Cn4cncn4)c3)n2)cc1 [Compound 33, 4-[4-(3-[1,2,4]triazol-1-ylmethyl-phenyl)-pyrimidin-2-ylamino]-phenol] | 10.3 µM | 20.7 µM | 7.4 µM | 12.8 ± 7 µM
4400 nM | 4000 nM | 420 nM | 370 nM |  | 2.2 µM | c1cc(Cn2cncn2)cc(-c2ccnc(Nc3ccc(N4CCOCC4)cc3)n2)c1 [Compound 32, (4-Morpholin-4-yl-phenyl)-[4-(3-[1,2,4]triazol-1-ylmethyl-phenyl)-pyrimidin-2-yl]-amine] | 19.7 µM | 6.1 µM | 40.3 µM | 22 ± 17.2 µM
1400 nM | 20000 nM | 1300 nM | 130 nM |  | 28 µM | O=[N+]([O-])c1cccc(Nc2nccc(-c3ccc(Cl)c(Cn4cncn4)c3)n2)c1 [Compound 47, [4-(4-Chloro-3-[1,2,4]triazol-1-ylmethyl-phenyl)-pyrimidin-2-yl]-(3-nitro-phenyl)-amine] |  |  |  | 
 |  | 20 nM | 90 nM | 1.1 µM | 1.5 µM | COc1ccc(-c2ccnc(Nc3ccc(OC)nc3)n2)cc1 [Compound 124, [4-(4-Methoxy-phenyl)-pyrimidin-2-yl]-(6-methoxy-pyridin-3-yl)-amine] |  |  |  | 
40 nM | 570 nM | 2 nM | 19 nM |  |  | O=[N+]([O-])c1cccc(Nc2nccc(-c3cccc(Cn4cncn4)c3)n2)c1 [Compound 30, (3-Nitro-phenyl)-[4-(3-[1,2,4]triazol-1-ylmethyl-phenyl)-pyrimidin-2-yl]-amine] | 8 µM | 7.1 µM | 4.4 µM | 6.5 ± 1.8 µM
1300 nM | 1700 nM | 1200 nM | 320 nM | 9.8 µM | 3.5 µM | Clc1ccc(Nc2nccc(-c3cccc(CNCc4ccccc4)c3)n2)cn1 [Compound 48, {4-[3-(Benzylamino-methyl)-phenyl]-pyrimidin-2-yl}-(6-chloro-pyridin-3-yl)-amine] | 13.4 µM | 5.1 µM | 20.4 µM | 13 ± 7.7 µM
 | 640 nM | 140 nM |  |  |  | OCC1CCCCN1Cc1cccc(-c2ccnc(Nc3cccc(O)c3)n2)c1 (stereo not shown) [Compound 103, 3-{4-[3-(2-Hydroxymethyl-piperidin-1-ylmethyl)-phenyl]-pyrimidin-2-ylamino}-phenol] | 6.9 µM | 7 µM | 5.6 µM | 6.5 ± 0.8 µM
 | 1600 nM | 2900 nM |  |  |  | OCC1CCCCN1Cc1cccc(-c2ccnc(Nc3ccc(N4CCOCC4)cc3)n2)c1 (stereo not shown) [Compound 101, (1-{3-[2-(4-Morpholin-4-yl-phenylamino)-pyrimidin-4-yl]-benzyl}-piperidin-2-yl)-methanol] | 17.3 µM | 6 µM | 25 µM | 16.1 ± 9.6 µM
 | 1400 nM | 490 nM |  |  |  | COc1ccc(Nc2nccc(-c3cccc(CN4CCCCC4CO)c3)n2)cn1 (stereo not shown) [Compound 102, (1-{3-[2-(6-Methoxy-pyridin-3-ylamino)-pyrimidin-4-yl]-benzyl}-piperidin-2-yl)-methanol] | 17 µM | 11.1 µM | 23.4 µM | 17.2 ± 6.2 µM
79 nM | 320 nM | 9 nM | 32 nM | 3.9 µM | 4.7 µM | N#Cc1cccc(Nc2nccc(-c3cccc(Cn4cncn4)c3)n2)c1 [Compound 36, 3-[4-(3-[1,2,4]triazol-1-ylmethyl-phenyl)-pyrimidin-2-ylamino]-benzonitrile] |  |  |  | 
 | 36000 nM | 190 nM |  | 10 µM | 11 µM | COc1ccc(Nc2nccc(-c3cccc(CN4CCN(C)CC4)c3)n2)cn1 [Compound 58, (6-Methoxy-pyridin-3-yl)-{4-[3-(4-methyl-piperazin-1-ylmethyl)-phenyl]-pyrimidin-2-yl}-amine] | 7 µM | 5.7 µM | 9.6 µM | 7.4 ± 2 µM
3700 nM | 1400 nM | 530 nM | 190 nM |  | 1.9 µM | CN(C)c1ccc(Nc2nccc(-c3cccc(Cn4cncn4)c3)n2)cc1 [Compound 43, N,N-Dimethyl-N′-[4-(3-[1,2,4]triazol-1-ylmethyl-phenyl)-pyrimidin-2-yl]-benzene-1,4-diamine] | 14.9 µM | 7.8 µM | 30.9 µM | 17.9 ± 11.8 µM
570 nM | 6000 nM | 2000 nM | 180 nM | 6.5 µM | 16 µM | O=[N+]([O-])c1cccc(Nc2nccc(-c3cccc(CNCc4ccccc4)c3)n2)c1 [Compound 27, {4-[3-(Benzylamino-methyl)-phenyl]-pyrimidin-2-yl}-(3-nitro-phenyl)-amine] | 14.1 µM | 4.9 µM | 43.8 µM | 20.9 ± 20.3 µM
5800 nM | 16000 nM | 25000 nM | 3600 nM |  | 28 µM | COc1ccc(OC)c(-c2ccnc(Nc3ccc(O)cc3)n2)c1 [Compound 45, 4-[4-(2,5-Dimethoxy-phenyl)-pyrimidin-2-ylamino]-phenol] | 25.9 µM | 8.1 µM | 17.4 µM | 17.1 ± 8.9 µM
1600 nM |  |  |  |  |  | O=[N+]([O-])c1cccc(-c2ccnc(Nc3ccc(O)cc3)n2)c1 [Compound 1, 4-[4-(3-Nitro-phenyl)-pyrimidin-2-ylamino]-phenol] | 14.5 µM | 22.9 µM | 44.2 µM | 27.2 ± 15.3 µM
17000 nM |  |  | 490 nM |  |  | COc1ccc(OC)c(-c2ccnc(Nc3cccc([N+](=O)[O-])c3)n2)c1 [Compound 44, [4-(2,5-Dimethoxy-phenyl)-pyrimidin-2-yl]-(3-nitro-phenyl)-amine] | 1.5 µM | 1.3 µM | 1 µM | 1.3 ± 0.3 µM
1800 nM | 650 nM | 44 nM | 84 nM |  | 9.4 µM | COc1ccc(Nc2nccc(-c3cccc(Cn4cncn4)c3)n2)cn1 [Compound 50, (6-Methoxy-pyridin-3-yl)-[4-(3-[1,2,4]triazol-1-ylmethyl-phenyl)-pyrimidin-2-yl]-amine] | 14.3 µM | 11.9 µM | 33.8 µM | 20 ± 12 µM
300 nM | 990 nM | 20 nM | 30 nM | 0.93 µM |  | COc1ccc(-c2ccnc(Nc3cccc([N+](=O)[O-])c3)n2)cc1 [Compound 94, [4-(4-Methoxy-phenyl)-pyrimidin-2-yl]-(3-nitro-phenyl)-amine] |  |  |  | 
